Measurements reported in paper PMC5641551, “Chemical Proteomics for Target Discovery of Head-to-Tail Cyclized Mini-Proteins” (Frontiers in Chemistry, 2017).
No end group written: not given here.

Tested on: Foxo3a transcriptional activity in HEK293 cells co-transfected with 14-3-3β
Assay: Foxo3a luciferase reporter gene assay
Type: cell-based, human
Experimental: Jurkat cells were cultured in RPMI medium containing phenol red supplemented with 10% (v/v) heat deactivated fetal calf serum and 100 U/mL penicillin/streptomycin at 37°C in humidified atmosphere of 5% CO2. HEK293 cells were cultured in Dulbecco's modified eagle high glucose medium supplied with 10% fetal calf serum and 100 U per mL penicillin/streptomycin. Cell transfection was carried out by Jetprime® according to the manufacturer's recommendation (Polyplus, Illkirch, France).
Forkhead box protein 3a induced transcriptional activity was measured on transiently transfected HEK293 cells (5 × 10^4). The reporter plasmid encoding luciferase under the control of a promotor containing forkhead responsive elements and the human p-Foxo3a-HA plasmid were gifts of Michael Greenberg provided by the Addgene consortium (#1787 and #1789; Brunet et al., [1999]). The plasmids encoding the mouse p-14-3-3 beta-GST protein and the functional forkhead transcription factor were used in a 1.5-fold amount compared to the reporter construct. The transfection was completed after 6 h and the cells could recover for 4 h in growth medium. The cells were serum starved using 1% (v/v) fetal bovine serum in phenol red free DMEM medium supplemented with antibiotics overnight. After 4 h peptide and 24 h of fusicoccin-A treatment the luciferase assay was developed using luciferase development kit from Promega E151 (Wisconsin, United States) and the luminescence was measured on a synergy H4 plate reader (Biotek). Control compounds were the PI3K inhibitors wortmannin and LY294002 (both Sigma Aldrich). The recorded data were normalized to the non-treated control sample. Significance and IC50-values were calculated from at least two biological replicates using GraphPad Prism. Data analysis was performed by non-linear regression using a four parameter Hill equation.
If not stated in detail for the respective single experiment the statistical tests were performed using GraphPad Prism 5.04 (GraphPad, La Jolla, CA) using one-way ANOVA with Bonferonni or Dunnett's Post-hoc test. The number of technical and biological repeats was justified by analysis of error and reproducibility of results. Significance threshold P < 0.05 was applied to all experiments. For the data shown in Figure 3 three individuals for the in vivo experiments were used and each data point was performed in three technical replicates. The pull down experiments shown in Figures 4A,B were performed a single time and the data represent two technical repeats. Gel lanes were loaded with single (1x) or doubled (2x) amount of pull down proteins for better visibility. The data illustrated in Figures 4C,D were performed in two independent experiments. Silver stained gel lanes were evaluated by loading various amounts, and then the amount with optimized staining contrast was loaded and used for in-gel protein digestion. The pull down experiments shown in Figures 4E,F were performed a single time. The Western Blots and the pull down experiment shown in Figure 5 represent experiments in three and two independent experiments, respectively. Experiments in a well-based format (Figure 6) were performed with three technical and two biological replicates. All data illustrated in this manuscript show the mean ± standard deviation (SD) unless stated otherwise. The MS based protein identifications were performed in two technical analyses for each sample.
Figure 6 Foxo3a luciferase reporter assay. The modulation of the Akt/PI3K/Foxo3a pathway by the cyclotide [T20K]kB1 binding to 14-3-3 proteins was investigated. HEK293 cells were transiently transfected with Foxo3a-Luc plasmid encoding luciferase under a promotor with Foxo response elements, Foxo3a and 14-3-3β. For control the reporter plasmid (basal value) was also co-transfected with the single functional effector proteins 14-3-3β or Foxo3a. Cells were treated under starving conditions with peptide or fusicoccin-A (FC-A) for 4 h or 24 h, respectively. […]

CGETCVGGTCNTPGCKCSWPVCTRNGLPV (also: bicyclic or more (positions not given here)) [[T20K]kB1, synthetic cyclotide drug candidate, Thr20 to Lys mutant of kalata B1]
Foxo3a transcriptional activity, effect in words (HEK293, luciferase reporter, PI3K inhibitors as controls, peptide 4 h): reduced the transcriptional activity of Foxo3a in a concentration-dependent manner | IC50 (HEK293 transfected with Foxo3a-Luc, Foxo3a and 14-3-3β, peptide treatment 4 h, IC50 ± SD, two independent experiments, four parameter Hill fit, read-out: IC50, reduction of Foxo3a transcriptional activity (luciferase)): 5.27 ± 0.25 µM | effect on 14-3-3/Foxo3a protein complex (suggested) (inferred from decreased Foxo3a transcriptional activity in reporter assay): exerts a stabilizing effect on the 14-3-3/Foxo3a protein complex
